The values that follow come from the supplement of paper PMC10290057.

Counter-ions that a name gives are not always drawn.
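Note: Luminescence-based viability readout, five doses per compound, normalized against on-plate DMSO and empty-well controls, followed by dose-response curve fitting for every drug.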

This test relates to HCT116. The test is described as follows: efficacy (fitted maximal change in viability relative to DMSO control); higher = less cytotoxic (negative = loss of viability). Particulars: 48 h.
Turning to `CC(C)[C@H]1C(=O)N[C@@H](CCCN=C(N)N)C(=O)NCC(=O)N[C@@H](CC(=O)O)C(=O)N[C@H](Cc2ccccc2)C(=O)N1C` [Cilengitide], the efficacy was -11%.
The same measure for `O=C1CCc2cc(OCCCCc3nnnn3C3CCCCC3)ccc2N1` [Cilostazol]: -26.7%; for `O=C(O)CCCCN(CCc1ccccc1OCc1ccc(CCc2ccccc2)cc1)Cc1ccc(C(=O)O)cc1` [Cinaciguat]: -11.7%.
The value for `C=C[C@H]1CN2CCC1C[C@@H]2[C@@H](O)c1ccnc2ccccc12` (stereo partly drawn) [Cinchonine dihydrochloride] was -36.1%; that for `CC(C)(Oc1ccc(C2CC2(Cl)Cl)cc1)C(=O)O` (stereo not drawn) [Ciprofibrate] was -6.71%; that for `[NH2][Pt]([NH2])([Cl])[Cl]` [Cisplatin] was -25%.
The value for `CCC[C@@H]1C[C@@H](C(=O)N[C@@H]([C@H]2O[C@H](SC)[C@H](O)[C@@H](O)[C@H]2O)[C@H](C)Cl)N(C)C1` [Clindamycin HCl] was -14.1%; that for `CCCCCCCCCCCCCCCC(=O)O[C@@H]1[C@@H](O)[C@@H](O)[C@@H]([C@H](NC(=O)[C@@H]2C[C@@H](CCC)CN2C)[C@H](C)Cl)O[C@@H]1SC.Cl` [Clindamycin palmitate] was -24.9%; that for `CCC(=O)O[C@@]1([C@@H](C)C[C@H]2[C@@H]3CCC/4=C/C(=O)/C=C\[C@]4(C)[C@@]3(F)[C@@H](O)C[C@]12C)C(=O)CCl` [Clobetasol propionate] was -57.1%.
As for `Nc1nc(Cl)nc2c1ncn2[C@@H]1O[C@H](CO)[C@@H](O)[C@@H]1F` [Clofarabine], the efficacy is -51.1%.
`CN(C)CCCN1c2ccccc2CCc2ccc(Cl)cc21` [Clomipramine hydrochloride]: the efficacy was -84.3%.
For the molecule `COC(=O)[C@H](c1ccccc1Cl)N1CCc2sccc2C1` [Clopidogrel bisulfate], the efficacy is -22.3%.
The value for `Nc1cc(c(cc1S(=O)(N)=O)S(N)(=O)=O)C(/Cl)=C(/Cl)Cl` [Clorsulon] was -7.71%.
As for `COC1=C(OC)C(=O)C(C/C=C(\C)CC/C=C(\C)CC/C=C(\C)CC/C=C(/C)CC/C=C(\C)CC/C=C(\C)CC/C=C(\C)CC/C=C(\C)CC/C=C(\C)CCC=C(C)C)=C(C)C1=O` [Coenzyme Q10], the efficacy came out at 7.5%.
As for `CN(Cc1ccccc1)C(=O)c1ccc([S+](=O)([O-])Nc2ccccc2)cc1` [Compound 2], the efficacy was -20.4%.
As for `CN[C@@H](C)C(=O)N[C@@H]1C(=O)N(Cc2c(C)ccc3ccccc23)c2ccc(C#N)cc2N(C(C)=O)[C@H]1C` [Compound 36], the efficacy was -26%.
The same measure for `Nc1ncnc2c1ncn2[C@@H]1O[C@H](CO)C[C@H]1O` [Cordycepin]: -20.6%; for `CC(=O)OCC(=O)[C@@]1(O)CC[C@H]2[C@@H]3CCC/4=C/C(=O)CC[C@]4(C)[C@H]3C(=O)C[C@]12C` [Cortisone acetate]: 22.5%; for `C[C@@H]1C[C@H]2[C@@H]3\C=C(C)/C4=C/C5=C(C[C@]4(C)[C@H]3[C@@H](O)C[C@]2(C)[C@@]1(O)C(=O)COC(C)=O)C=N[N]5C6=CC=CC=C6` [Cortivazol]: -25.2%.
The value for `C/C=C/C(=O)N(CC)c1ccccc1C` [Crotamiton] was 6.9%.
The value for `C[C@H]1COC/2=C1/C(=O)C(=O)C3=C4CCCC(C)(C)C4=CC=C23` [Cryptotanshinone] was -30%; that for `C=C1C[C@@]2(O)O[C@@]3(C[C@H]2C(C)C)[C@@H](C)CC[C@@H]13` [Curcumol] was -14.1%; that for `COc1ccc(CCN2CCN(CCCc3ccccc3)CC2)cc1OC` [Cutamesine hydrochloride] was -28.5%.
As for `CN[C@@H](C)[C@H]1[C@H](O)C[C@@]2(C)[C@@H]3CC[C@H]4C(C)(C)[C@@H](NC)CC[C@@]45C[C@@]35CC[C@]12C` [Cyclovirobuxin D], the efficacy is -29.5%.
The value for `CC(C)C(N)C(=O)OCC(CO)OC[N]1C=NC2=C1N\C(=N/C2=O)N` (stereo not drawn) [Cymeval] was -19.5%; that for `CC(=O)O[C@@]1(CC[C@H]2[C@@H]3\C=C(Cl)/C4=C/C(=O)[C@@H]5C[C@@H]5[C@]4(C)[C@H]3CC[C@]12C)C(C)=O` [Cyproterone acetate] was -60.6%; that for `NC\1=N\C(=O)N(\C=C1)[C@@H]2O[C@H](CO)[C@@H](O)[C@H]2O` [Cytidine] was -11.1%.
Regarding `O=C1\C=C/C=C2/[C@H]3CNC[C@H](C3)CN12` [Cytisine], the efficacy was -21.9%.
The same measure for `O=C(O)c1ccc(CCCc2ccc(OCCc3ccc(F)cc3)cc2)o1` [D-942]: -66.5%.
In the case of `NC(=O)c1ccc(-c2nc(-c3ccc4c(c3)OCCO4)c(-c3ccccn3)[nH]2)cc1` [D-4476], the efficacy was -84.9%.
The value for `N[C@@H]1CONC1=O` [D-Cycloserine] was -29.8%; that for `Cn1c(CNc2ccc(C(=N)N)cc2)nc2cc(C(=O)N(CCC(=O)O)c3ccccn3)ccc21` [Dabigatran] was -8.84%.
The value for `CC(C)(C)c1nc(-c2cccc(N[S+](=O)([O-])c3c(F)cccc3F)c2F)c(-c2ccnc(N)n2)s1` [Dabrafenib] was -29.3%; that for `COC(=O)N[C@H](C(=O)N1CCC[C@H]1c1ncc(-c2ccc(-c3ccc(-c4cnc([C@@H]5CCCN5C(=O)[C@@H](NC(=O)OC)C(C)C)[nH]4)cc3)cc2)[nH]1)C(C)C` [Daclatasvir dihydrochloride] was -112%; that for `OC1=CC=C(C=C1)\C2=C\OC3=C(C=CC(=C3)O)C2=O` [Daidzein] was 12.4%.
The value for `OC[C@H]1O[C@@H](OC2=CC3=C(C=C2)C(=O)\C(=C/O3)C4=CC=C(O)C=C4)[C@H](O)[C@@H](O)[C@@H]1O` [Daidzin] was -23.3%.
In the case of `CCC(CC)CC1(C(=O)Nc2ccccc2SC(=O)C(C)C)CCCCC1` [Dalcetrapib], the efficacy was -17.1%.
For `CN(C)NC(=O)CCC(=O)O` [Daminozide], the efficacy is -8.97%.
The value for `O=C(O)CNC(=O)C1C(=O)N(C2CCCCC2)C(=O)N(C2CCCCC2)C1=O` [Daprodustat] was -6.36%; that for `COc1cccc2c1C(=O)c1c(O)c3c(c(O)c1C2=O)C[C@@](O)(C(C)=O)C[C@@H]3O[C@H]1C[C@H](N)[C@H](O)[C@H](C)O1` [Daunorubicin] was -77.4%.
The same measure for `CC(=O)OCC(=O)[C@@]12\N=C(C)/O[C@@H]1C[C@H]3[C@@H]4CCC/5=C/C(=O)/C=C\[C@]5(C)[C@H]4[C@@H](O)C[C@]23C` [Deflazacort]: 9%; for `C[C@]12CC[C@H]3[C@@H](C\C=C/4C[C@@H](O)CC[C@]34C)[C@@H]1CCC2=O` [Dehydroepiandrosterone]: -17%.
The same measure for `C[C@@H](CN1CC(=O)NC(=O)C1)N1CC(=O)NC(=O)C1` [Dexrazoxane hydrochloride]: -22.3%; for `O=C([O-])Cc1ccccc1Nc1c(Cl)cccc1Cl` [Diclofenac sodium]: -6.7%; for `N[S+](=O)([O-])c1cc(Cl)c(Cl)c([S+](N)(=O)[O-])c1` [Diclofenamide]: -19.2%.
Regarding `C/C=C(/C(=C/C)c1ccc(O)cc1)c1ccc(O)cc1` [Dienestrol], the efficacy was -63.7%.
Turning to `C[C@]12CCC\3=C\4CCC(=O)\C=C4CC[C@H]3[C@@H]1CC[C@@]2(O)CC#N` [Dienogest], the efficacy was -15.9%.
The same measure for `OC1=CC2=C(C(=C1)O)C(=O)\C=C(/O2)C3=CC(=C(O)C=C3)O` [Digitoflavone]: -77.5%.
The value for `c1ccc2c(Cc3c[nH]c4ccccc34)c[nH]c2c1` [Diindolylmethane] was -49.5%; that for `COc1ccc([C@@H]2Sc3ccccc3N(CCN(C)C)C(=O)[C@@H]2OC(C)=O)cc1` [Diltiazem hydrochloride] was -17.5%; that for `COC(=O)/C=C/C(=O)OC` [Dimethyl fumarate] was -18.4%.
The value for `COC1=CC=C(C=C1O)C/2=C/C(=O)C3=C(O2)C=C(O[C@@H]4O[C@H](CO[C@@H]5O[C@@H](C)[C@H](O)[C@@H](O)[C@H]5O)[C@@H](O)[C@H](O)[C@H]4O)C=C3O` [Diosmin] was -15.2%; that for `CN(C)CCOC(c1ccccc1)c1ccccc1` [Diphenhydramine hydrochloride] was -12.9%; that for `OCCN(CCO)c1nc(N2CCCCC2)c2nc(N(CCO)CCO)nc(N3CCCCC3)c2n1` [Dipyridamole] was -30.3%.
For the molecule `CC(=O)O[C@@]12CO[C@@H]1C[C@H](O)[C@@]1(C)C(=O)[C@H](O)C3=C(C)[C@@H](OC(=O)[C@H](O)[C@@H](NC(=O)OC(C)(C)C)c4ccccc4)C[C@@](O)([C@@H](OC(=O)c4ccccc4)[C@H]21)C3(C)C` [Docetaxel], the efficacy was -56.4%.
The value for `CN(CCOc1ccc(N[S+](C)(=O)[O-])cc1)CCc1ccc(N[S+](C)(=O)[O-])cc1` [Dofetilide] was -5.68%.
The value for `NCCc1ccc(O)c(O)c1` [Dopamine hydrochloride] was -16.8%; that for `C[C@H](O)[C@H]1[C@@H]2[C@H](C)C(=C(\N2C1=O)C(O)=O)/S[C@@H]3CN[C@H](CN[S+](N)([O-])=O)C3` [Doripenem] was 5.86%.
`CCN[C@H]1C[C@H](C)[S+](=O)([O-])c2sc([S+](N)(=O)[O-])cc21` [Dorzolamide hydrochloride]: the efficacy was -11%.
The same measure for `Cn1c(=O)c2c(ncn2CC2OCCO2)n(C)c1=O` [Doxofylline]: -7.38%; for `CC1C\2C(O)C3C(N(C)C)C(=O)\C(=C(O)/C3(O)C(=O)C2=C(O)/C4=C1C=CC=C4O)C(N)=O` (stereo not drawn) [Doxycycline]: -26.7%; for `C[C@@H]1[C@H]\2[C@H](O)[C@H]3[C@H](N(C)C)\C(=C(C(N)=O)/C(=O)[C@@]3(O)\C(=C2C(=O)C4=C(O)C=CC=C14)O)O` [Doxycycline]: 12.1%.
The value for `C[C@]\12CCC(=O)\C=C1[C@@H]3C[C@@H]3[C@@H]4[C@@H]2CC[C@@]5(C)[C@H]4[C@@H]6C[C@@H]6[C@@]57CCC(=O)O7` [Drospirenone] was -38.8%.
